The test system of one data set is CCL2/MCP-1. In kind it is cell-based, human.
The subject of data set [1] is keratins K5, K6, K14, K15, K16, K17. Nature of the data set: Keratin expression in HaCaT keratinocytes by Western blot. In kind it is cell-based, human. As to conditions: for expression of K15: Western blot, cells pretreated with IFNγ/TNFα, FIG. 6 right; for K5 protein expression / K14 protein expression / K15 protein expression / K16 protein expression / K17 protein expression: post-differentiating human keratinocyte cells, concentration dependent effect, FIG. 20. How it is done:
Cell culturing was performed as follows: HaCaT, human immortalized keratinocyte cell line was cultured in Dulbecco's Modified Eagle Medium (DMEM; Life Technologies Hungary Ltd.) supplemented with 10 (V/V) % fetal bovine serum (FBS; Life Technologies Hungary Ltd.) and antibiotics mixture (penicillin and streptomycin in 1:100; PAA Laboratories GmbH, Pasching, Austria) and Fungizone® Antimicotic (in 1:200; Life Technologies Hungary Ltd.) respectively.
Cells were cultured at 37° C. in humidified, 5% CO2-containing atmosphere, the medium was changed every other day, and cells were sub-cultured at 70-80% confluence in all cases. For the drug treatment, the medium was changed every day.
Western blotting was used to determine the expression of keratins in HaCaT cells. The initial cell count was 2×10^5 cells/per Petri dish in “small” (d=35 mm) Petri dishes in 1.5 mL culture medium (DMEM supplemented with FBS (10%), antibiotics and antimycotics). Cells were harvested at the following stages: preconfluent (proliferating) and postconfluent (differentiating). The combinations employed for Western blotting were cannabidiols:cannabinol (1:0.1 μM), cannabidiols:cannabinol (0.1:1 μM), and cannabidiols:cannabinol (1:1 μM). The genes whose expression was investigated by Western blotting were GAPDH or β-actin as internal controls and (K1), K5, K6, (K10), K14, K15, K16, and K17. Protein samples were used at 5 μl/well. The standards used were PageRuler Plus Prestained (Pierce). Electrophoresis was at 100 volts.
Transfer was performed using the Trans-Blot® Turbo™ Transfer System (1.3 A, 25 V, 7 min). The primary antibody was used at 1:100 in 5% milk containing PBS; overnight at 4° C.; the primary antibody was guinea pig anti-human keratins: anti human Keratin 1, Keratin 5, Keratin 6, Keratin 14, Keratin 15, Keratin 16, Keratin 17 (from Lutz Langbein; predicted band: […]). The secondary antibody was used at 1:1000 in 5% milk containing PBS; 1 hr at RT; the secondary antibody was HRP-conjugated goat anti-Guinea Pig IgG (Santa Cruz). The loading controls were Rabbit anti-human GAPDH (Novus Biologicals; Cat. No.: NB300-322; predicted band: ˜37 kDa) or anti-human β-actin (Sigma-Aldrich; Cat. No.: A2668; predicted band: ˜42 kDa) 1:1000 in 5% milk containing PBS. HRP-conjugated goat anti-rabbit IgG Fc-segment (BioRad 170-6515; 1:1000) was used.
For statistical analysis, data were analyzed and graphs were plotted by using Origin Pro Plus 6.0 software (Microcal, Northampton, MA, USA), using Student's two-tailed two samples t-test and P<0.05 values were regarded as significant differences.

The next data set concerns fibronectin-EDA. Nature of the data set: TGFβ1-induced fibronectin-EDA expression in HaCaT keratinocytes (immunoblot). In kind it is cell-based. As to conditions: human keratinocytes; fibronectin-EDA/β-tubulin ratio; FIG. 21, 25. From the text:
(§1) For western blotting in the wound healing analysis, epithelial-mesenchymal transition (EMT) is a critical element of epithelial biology, cancer development, and fibrosis. Chronic activation of TGF-β-signaling in the skin ultimately leads to fibrosis (keloid). EMT of keratinocytes is adaptive response in the normal wound healing process. It is characterized by decrease of E-cadherin (important element of keratinocyte integrity and tight junction formation) expression and upregulation of cellular fibronectin (Fibronectin-EDA) production. The latter is a very important protective element of epithelial cells during mucosal tissue repairs.
(§2) Total protein extracts were prepared from synchronized HaCaT cells at different times. […]
(§3) Assay Procedures: EMT induced by TGFβ1 in keratinocytes was analyzed by expression of human E-Cadherin (E-CDH) and Cellular Fibronectin (FBN-EDA). Fibroblast activation and differentiation was determined by αSMA expression. E-CDH, FBN-EDA and αSMA proteins were determined by SDS-PAGE and Immunobloting using mouse anti-human E-CDH, FBN-EDA and αSMA monoclonal antibodies. […] Density of the bands was quantified in two infrared channels independently using Odyssey software 2.1 (LI-COR Biosciences). The results are expressed as a protein/β-tubulin/HSP90 density ratio.
Background: In western blotting, separated proteins are transferred to a membrane and probed.

For the next data set, the system named is E-cadherin. Nature of the data set: TGFβ1-induced E-cadherin inhibition in HaCaT keratinocytes (immunoblot). Conditions: human keratinocytes; E-cadherin/β-tubulin ratio; FIG. 21, 24. In kind it is cell-based.
Description: as §1, §2, §3

Data set [2] relates to keratins K5, K6, K14, K15, K16, K17. Nature of the data set: Keratin expression in HaCaT keratinocytes by Western blot. As to conditions: 10 μM. In kind it is cell-based, human.
The subject of the next data set is CB1 receptor. Nature of the data set: CB1 receptor expression by human fibroblasts under TGFβ1 (western blot). In kind it is cell-based. Conditions: CB1 receptor/HSP90 ratio, FIG. 22.
For a further data set, the system named is IL-6. Nature of the data set: IFNγ/TNFα-induced IL-6 production by human keratinocytes. In kind it is cell-based. Conditions: FIG. 13.
A short description of data set [3]: Skin penetration, Franz diffusion cell. In kind it is in vitro ADME, porcine. As to conditions: after 18 hours at 32° C.; 400 μg applied; LABRASOL/Plo-gel formulation; FIG. 18. How it is done:
Skin penetration of formulations described herein was measured according to the following procedure: the formulation was LABRASOL® (caprylocaproyl polyoxyl-8 glycerides), Plo-gel (Poloxomer 407, Lecithin, isopropyl palmitate). The formulation is applied to the center part of the circle and is rubbed to the skin using a […]. The sample is mounted to the top of a Franz diffusion cell with the outer layer of the skin facing upward. The receptor medium of the Franz cell is filled with phosphate buffer. The cap of the cell is mounted and clamped. This construct is placed inside the incubator/shaker for 18 hours at 32° C. (FIG. 14).

For a further data set, the system named is IL-8. Nature of the data set: IL-8 production by human keratinocytes. In kind it is cell-based. Conditions: basal, FIG. 13.
Another data set relates to αSMA. Nature of the data set: TGFβ1-induced αSMA expression in human fibroblasts (immunoblot). In kind it is cell-based. As to conditions: αSMA/HSP90 ratio, FIG. 23. How it is done:
Experimental Design: HaCaT and HFL-1 cells cultured in 24-well plates (1×10^5 cells/well/mL) in DMEM supplemented with 1% FBS and antibiotics/antimycotics in the presence of INM-501, INM-509, INM-505, INM-506, INM-513 (cannabigerol (CBG)), INM-517, HU-210 ((6aR,10aR)-9-(hydroxymethyl)-6,6-dimethyl-3-(2-methyloctan-2-yl)-6H,6aH,7H,10H,10aH-benzo[c]isochromen-1-ol)), and SR144528 (all at 1 μM concentration, EchoPharmaceuticals, AT Nijmegen, The Netherlands, Cayman Chemical, Ann Arbor, MI) alone or with simultaneously added human recombinant TGFβ1 at 10 and 20 ng/ml concentrations for 72 hr. Cell culture supernatants were removed and cells were lyzed with Cell Protein Extraction Buffer supplemented with Proteinases/Phosphatases Inhibitors Cocktail. […]
as §3

Entries after “also recorded” stand apart in the source; their conditions may differ. Like-named read-outs stand apart in the source and are kept apart here.

In the case of `CCCCCc1cc(O)c(C/C=C(\C)CCC=C(C)C)c(O)c1` [INM-513, cannabigerol], the “IFNγ/TNFα-induced CCL2/MCP-1 production” value in the data set on CCL2/MCP-1 is given as “upregulated”.
As to `CCCCCc1cc(O)c2c(c1)OC(C)(C)c1ccc(C)cc1-2` [INM-517, 6,6,9-trimethyl-3-pentylbenzo[c]chromen-1-ol], in [1], the “expression of K15” value is recorded as “promote”, the K5 protein expression entry is given as “generally increases”, the K14 protein expression result is “generally increases” and the K15 protein expression result was “generally increases”. In [1], the K16 protein expression entry is listed as “generally increases” and the K17 protein expression result is “generally increases”. The “TGF-β-induced fibronectin-EDA expression” value in the data set with fibronectin-EDA is “preserving”. Also, the “TGF-β-induced downregulation of E-cadherin” value in the data set with E-cadherin was “strong and potent effect”. In addition, the K14 gene expression result in [2] is “downregulated”.
On to `CCCCCCC(C)(C)c1cc(O)c2c(c1)OC(C)(C)[C@@H]1CC=C(CO)C[C@@H]21` [HU-210, (6aR,10aR)-9-(hydroxymethyl)-6,6-dimethyl-3-(2-methyloctan-2-yl)-6H,6aH,7H,10H,10aH-benzo[c]isochromen-1-ol], for which the “IFNγ/TNFα-induced CCL2/MCP-1 production” value in the data set on CCL2/MCP-1 is listed as “upregulated; also recorded: highest effect; also recorded: increase”.
As for `COc1ccc(C(=O)c2c(C)n(CCN3CCOCC3)c3cc(I)ccc23)cc1` [AM630, 6-iodopravadoline], the “cell responsiveness to TGFβ1” value with CB1 receptor is “modify”.
Regarding `C=C(C)[C@@H]1CCC(C)=C[C@H]1c1c(O)cc(CCCCC)cc1O` [INM-505, cannabidiols], in [1], the “expression of K15” value is reported as “promote”, the K5 protein expression entry was “generally increases”, the K14 protein expression result was “generally increases” and the K15 protein expression result is “generally increases”. In addition, in data set [1], the K16 protein expression result is given as “generally increases” and the K17 protein expression entry is “generally increases”. Besides, the “production of IL-6 by IFNγ/TNFα” value in the data set with IL-6 is “attenuate”. The “location of cannabinoid molecules in skin” value in data set [3] was “located in keratinocytes and basal cells”. For the same molecule, the IL-8 production result in the data set on IL-8 was “highly selective inhibitory effect”. For the same molecule, in the data set with CCL2/MCP-1, the “IFNγ/TNFα-induced CCL2/MCP-1 production” value is reported as “upregulated; also recorded: increase”.
Turning to `CCCCCc1cc(O)c2c(c1)OC(C)(C)[C@@H]1CCC(C)=C[C@@H]21` [Δ^9-tetrahydrocannabinol], in the data set with CCL2/MCP-1, the “IFNγ/TNFα-induced CCL2/MCP-1 production” value is given as “no significant effects” and the “basal CCL2 production” value is listed as “no significant effects”.
For `Cc1ccc(Cn2nc(C(=O)N[C@@H]3C(C)(C)[C@@H]4CC[C@@]3(C)C4)cc2-c2ccc(Cl)c(C)c2)cc1` [SR144528, 5-(4-chloro-3-methylphenyl)-1-[(4-methylphenyl)methyl]-N-[(1S,2S,4R)-1,3,3-trimethylbicyclo[2.2.1]heptan-2-yl]-1H-pyrazole-3-carboxamide], in the data set with CCL2/MCP-1 (HaCaT, 72 hr, method prints 1 mM, b249 prints 1 μM), the “basal CCL2 production” value is on record as “did not significantly change”. In addition, the “IFNγ/TNFα-induced CCL2/MCP-1 production” value with CCL2/MCP-1 (HaCaT, IFNγ and TNFα 10 ng/ml, 72 hr, method prints 1 mM, b249 prints 1 μM) is recorded as “did not significantly change”.
For `Cc1c(C(=O)NN2CCCCC2)nn(-c2ccc(Cl)cc2Cl)c1-c1ccc(I)cc1` [AM251, N-(piperidin-1-yl)-5-(4-iodophenyl)-1-(2,4-dichlorophenyl)-4-methyl-1H-pyrazole-3-carboxamide], the “TGFβ1-induced αSMA expression (TGFβ1-responsiveness)” value in the data set with αSMA is “upregulating”. For the same molecule, the “cell responsiveness to TGFβ1” value in the data set with CB1 receptor is “modify”.
